In this experiment the target is T1, human OX2 receptor (Homo sapiens, UniProt O43614).
T1 construct: expressed in transfected cells
T1 sequence (O43614 1-444): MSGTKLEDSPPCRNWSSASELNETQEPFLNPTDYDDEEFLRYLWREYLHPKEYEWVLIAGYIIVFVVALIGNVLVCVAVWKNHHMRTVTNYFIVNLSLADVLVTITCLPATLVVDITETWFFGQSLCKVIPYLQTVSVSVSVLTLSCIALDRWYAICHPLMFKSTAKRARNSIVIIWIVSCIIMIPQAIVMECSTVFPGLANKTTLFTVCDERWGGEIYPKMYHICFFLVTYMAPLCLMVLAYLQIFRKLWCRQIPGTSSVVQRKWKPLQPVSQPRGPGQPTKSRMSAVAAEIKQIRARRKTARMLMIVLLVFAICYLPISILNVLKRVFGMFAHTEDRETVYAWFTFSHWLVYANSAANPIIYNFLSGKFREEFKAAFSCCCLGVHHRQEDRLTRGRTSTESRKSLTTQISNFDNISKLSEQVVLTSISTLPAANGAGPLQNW
Description: Measurement of orexin type 2 receptor agonist activity (calcium fluorescence, Fluo-4 AM, FDSS). It counts as cell-based. As to conditions: compound at 3 μM; CHO cells forcibly expressing human OX2 receptor; DMSO = 0%, 10 nM orexin A (human) = 100%. In short, it runs like this: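 CHO-K1 cells stably expressing human OX2 receptor (residues 1-444) loaded with Fluo-4 AM in HBSS/20 mM HEPES/0.1% BSA with probenecid, 30 min at 37° C. then 30 min at room temperature. After compound addition, calcium fluorescence read for 1 min 40 s; activity (%) scaled to DMSO (0%) and 10 nM orexin A (100%).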

Consider `Cc1cnc([C@@H]2CC(N3C[C@H](F)[C@H](NS(=O)(=O)C(F)F)C3)=NO2)c(-c2c(F)cccc2F)c1` [Example 81, N-[(3R,4S)-1-{(5S)-5-[3-(2,6-difluorophenyl)-5-methylpyridin-2-yl]-4,5-dihydro-1,2-oxazol-3-yl}-4-fluoropyrrolidin-3-yl]-1,1-difluoromethanesulfonamide], for which the “OX2R agonist activity (3 μM, %)” value was determined as 100%.

For `Cc1cnc([C@@H]2CC(N3C[C@H](F)[C@H](NS(=O)(=O)CF)C3)=NO2)c(-c2c(F)cc(F)cc2F)c1` [Example 82, 1-fluoro-N-[(3R,4S)-4-fluoro-1-{(5S)-5-[5-methyl-3-(2,4,6-trifluorophenyl)pyridin-2-yl]-4,5-dihydro-1,2-oxazol-3-yl}pyrrolidin-3-yl]methanesulfonamide], the “OX2R agonist activity (3 μM, %)” value is given as 98%.

As to `Cc1cnc([C@@H]2CC(N3C[C@H](F)[C@H](NS(=O)(=O)N(C)C)C3)=NO2)c(-c2c(F)cc(F)cc2F)c1` [Example 83, N′-[(3R,4S)-4-fluoro-1-{(5S)-5-[5-methyl-3-(2,4,6-trifluorophenyl)pyridin-2-yl]-4,5-dihydro-1,2-oxazol-3-yl}pyrrolidin-3-yl]-N,N-dimethylsulfuric diamide], the “OX2R agonist activity (3 μM, %)” value is given as 103%.

For the molecule `CS(=O)(=O)N[C@@H]1CN(C2=NOC(c3ncc(Cl)cc3-c3c(F)cc(F)cc3F)C2)C[C@@H]1F` (stereo partly drawn) [Example 84, N-[(3R,4S)-1-{5-[5-chloro-3-(2,4,6-trifluorophenyl)pyridin-2-yl]-4,5-dihydro-1,2-oxazol-3-yl}-4-fluoropyrrolidin-3-yl]methanesulfonamide], the “OX2R agonist activity (3 μM, %)” value stood at 97%.

`CS(=O)(=O)N[C@@H]1CN(C2=NOC(c3ncc(Br)cc3-c3c(F)cc(F)cc3F)C2)C[C@@H]1F` (stereo partly drawn) [Example 85, N-[(3R,4S)-1-{5-[5-bromo-3-(2,4,6-trifluorophenyl)pyridin-2-yl]-4,5-dihydro-1,2-oxazol-3-yl}-4-fluoropyrrolidin-3-yl]methanesulfonamide]: the “OX2R agonist activity (3 μM, %)” value worked out at 99%.

On to `Cc1cnc(C2(CF)CC(N3C[C@H](F)[C@H](NS(C)(=O)=O)C3)=NO2)c(-c2c(F)cccc2F)c1` (stereo partly drawn) [Example 86, N-[(3R,4S)-1-{5-[3-(2,6-difluorophenyl)-5-methylpyridin-2-yl]-5-(fluoromethyl)-4,5-dihydro-1,2-oxazol-3-yl}-4-fluoropyrrolidin-3-yl]methanesulfonamide], for which the “OX2R agonist activity (3 μM, %)” value was found to be 95%.

For `CS(=O)(=O)N[C@H]1CCN(C2=NOC(CF)(c3ncc(F)cc3-c3c(F)cccc3F)C2)C1` (stereo partly drawn) [Example 87, N-[(3S)-1-{5-[3-(2,6-difluorophenyl)-5-fluoropyridin-2-yl]-5-(fluoromethyl)-4,5-dihydro-1,2-oxazol-3-yl}pyrrolidin-3-yl]methanesulfonamide], the “OX2R agonist activity (3 μM, %)” value is 104%.

For the molecule `CCS(=O)(=O)N[C@H]1CCN(C2=NOC(CF)(c3ncc(F)cc3-c3c(F)cccc3F)C2)C1` (stereo partly drawn) [Example 88, N-[(3S)-1-{5-[3-(2,6-difluorophenyl)-5-fluoropyridin-2-yl]-5-(fluoromethyl)-4,5-dihydro-1,2-oxazol-3-yl}pyrrolidin-3-yl]ethanesulfonamide], the “OX2R agonist activity (3 μM, %)” value came to 112%.

Turning to `O=S(=O)(N[C@H]1CCN(C2=NOC(CF)(c3ncc(F)cc3-c3c(F)cccc3F)C2)C1)C1(F)CC1` (stereo partly drawn) [Example 89, N-[(3S)-1-{5-[3-(2,6-difluorophenyl)-5-fluoropyridin-2-yl]-5-(fluoromethyl)-4,5-dihydro-1,2-oxazol-3-yl}pyrrolidin-3-yl]-1-fluorocyclopropane-1-sulfonamide], the “OX2R agonist activity (3 μM, %)” value is 93%.

For `CS(=O)(=O)N[C@@H]1CN(C2=NOC(c3ncc(F)cc3-c3c(F)cc(F)cc3F)C2)C[C@@H]1F` (stereo partly drawn) [Example 90, N-[(3R,4S)-4-fluoro-1-{5-[5-fluoro-3-(2,4,6-trifluorophenyl)pyridin-2-yl]-4,5-dihydro-1,2-oxazol-3-yl}pyrrolidin-3-yl]methanesulfonamide], the “OX2R agonist activity (3 μM, %)” value is on record as 98%.

On to `COCS(=O)(=O)N[C@@H]1CN(C2=NO[C@H](c3ncc(C)cc3-c3c(F)cc(F)cc3F)C2)C[C@@H]1F` [Example 91, N-[(3R,4S)-4-fluoro-1-{(5S)-5-[5-methyl-3-(2,4,6-trifluorophenyl)pyridin-2-yl]-4,5-dihydro-1,2-oxazol-3-yl}pyrrolidin-3-yl]-1-methoxymethanesulfonamide], for which the “OX2R agonist activity (3 μM, %)” value was 98%.

Take `CCS(=O)(=O)N[C@@H]1CN(C2=NO[C@H](c3ncc(C)cc3-c3c(F)cc(F)cc3F)C2)C[C@@H]1F` [Example 92, N-[(3R,4S)-4-fluoro-1-{(5S)-5-[5-methyl-3-(2,4,6-trifluorophenyl)pyridin-2-yl]-4,5-dihydro-1,2-oxazol-3-yl}pyrrolidin-3-yl]ethanesulfonamide]: the “OX2R agonist activity (3 μM, %)” value was 92%.

`Cc1cnc(C2(CF)CC(N3C[C@@H](NS(C)(=O)=O)C(F)(F)C3)=NO2)c(-c2c(F)cc(F)cc2F)c1` (stereo partly drawn) [Example 93, N-[(3R)-4,4-difluoro-1-{5-(fluoromethyl)-5-[5-methyl-3-(2,4,6-trifluorophenyl)pyridin-2-yl]-4,5-dihydro-1,2-oxazol-3-yl}pyrrolidin-3-yl]methanesulfonamide]: the “OX2R agonist activity (3 μM, %)” value is recorded as 99%.

Consider `Cc1cnc(C2(C)CC(N3C[C@H](F)[C@H](NS(C)(=O)=O)C3)=NO2)c(-c2c(F)cccc2F)c1` (stereo partly drawn) [Example 96, N-[(3R,4S)-1-{5-[3-(2,6-difluorophenyl)-5-methylpyridin-2-yl]-5-methyl-4,5-dihydro-1,2-oxazol-3-yl}-4-fluoropyrrolidin-3-yl]methanesulfonamide], for which the “OX2R agonist activity (3 μM, %)” value worked out at 99%.

As to `Cc1cnc([C@@H]2CC(N3C[C@H](F)[C@H](NS(=O)(=O)C4CC4)C3)=NO2)c(-c2c(F)cc(F)cc2F)c1` [Example 97, N-[(3R,4S)-4-fluoro-1-{(5S)-5-[5-methyl-3-(2,4,6-trifluorophenyl)pyridin-2-yl]-4,5-dihydro-1,2-oxazol-3-yl}pyrrolidin-3-yl]cyclopropanesulfonamide], the “OX2R agonist activity (3 μM, %)” value is listed as 103%.

For the molecule `O=S(=O)(N[C@@H]1CN(C2=NOC(c3ncc(Cl)cc3-c3c(F)cccc3F)C2)C[C@@H]1F)C1CC1` (stereo partly drawn) [Example 98, N-[(3R,4S)-1-{5-[5-chloro-3-(2,6-difluorophenyl)pyridin-2-yl]-4,5-dihydro-1,2-oxazol-3-yl}-4-fluoropyrrolidin-3-yl]cyclopropanesulfonamide], the “OX2R agonist activity (3 μM, %)” value stood at 108%.

On to `Cc1cnc([C@@H]2CC(N3CC[C@H](NS(=O)(=O)C(C)F)C3)=NO2)c(-c2c(F)cccc2F)c1` (stereo partly drawn) [Example 99, N-[(3S)-1-{(5S)-5-[3-(2,6-difluorophenyl)-5-methylpyridin-2-yl]-4,5-dihydro-1,2-oxazol-3-yl}pyrrolidin-3-yl]-1-fluoroethane-1-sulfonamide], for which the “OX2R agonist activity (3 μM, %)” value amounted to 101%.

In the case of `Cc1cnc([C@@H]2CC(N3CC[C@H](NS(=O)(=O)C(C)F)C3)=NO2)c(-c2c(F)cc(F)cc2F)c1` (stereo partly drawn) [Example 100, 1-fluoro-N-[(3S)-1-{(5S)-5-[5-methyl-3-(2,4,6-trifluorophenyl)pyridin-2-yl]-4,5-dihydro-1,2-oxazol-3-yl}pyrrolidin-3-yl]ethane-1-sulfonamide], the “OX2R agonist activity (3 μM, %)” value was 99%.

Take `O=S(=O)(CF)N[C@H]1CCN(C2=NOC(c3ncc(Cl)cc3-c3c(F)cccc3F)C2)C1` (stereo partly drawn) [Example 101, N-[(3S)-1-{5-[5-chloro-3-(2,6-difluorophenyl)pyridin-2-yl]-4,5-dihydro-1,2-oxazol-3-yl}pyrrolidin-3-yl]-1-fluoromethanesulfonamide]: the “OX2R agonist activity (3 μM, %)” value was 98%.

For `O=S(=O)(CF)N[C@H]1CCN(C2=NOC(c3ncc(Br)cc3-c3c(F)cccc3F)C2)C1` (stereo partly drawn) [Example 102, N-[(3S)-1-{5-[5-bromo-3-(2,6-difluorophenyl)pyridin-2-yl]-4,5-dihydro-1,2-oxazol-3-yl}pyrrolidin-3-yl]-1-fluoromethanesulfonamide], the “OX2R agonist activity (3 μM, %)” value came out at 95%.

As for `CS(=O)(=O)N[C@@H]1CN(C2=NOC(c3ncc(Cl)cc3-c3c(F)cccc3F)C2)C[C@@H]1F` (stereo partly drawn) [Example 103, N-[(3R,4S)-1-{5-[5-chloro-3-(2,6-difluorophenyl)pyridin-2-yl]-4,5-dihydro-1,2-oxazol-3-yl}-4-fluoropyrrolidin-3-yl]methanesulfonamide], the “OX2R agonist activity (3 μM, %)” value came to 96%.

For the molecule `Cc1cnc(C2(CF)CC(N3C[C@@H](NS(C)(=O)=O)C(F)(F)C3)=NO2)c(-c2c(F)cccc2F)n1` (stereo partly drawn) [Example 104, N-[(3R)-1-{5-[3-(2,6-difluorophenyl)-5-methylpyrazin-2-yl]-5-(fluoromethyl)-4,5-dihydro-1,2-oxazol-3-yl}-4,4-difluoropyrrolidin-3-yl]methanesulfonamide], the “OX2R agonist activity (3 μM, %)” value was determined as 102%.

Turning to `Cc1cnc(C2(CF)CC(N3C[C@H](F)[C@H](NS(C)(=O)=O)C3)=NO2)c(-c2c(F)cccc2F)n1` (stereo partly drawn) [Example 105, N-[(3R,4S)-1-{5-[3-(2,6-difluorophenyl)-5-methylpyrazin-2-yl]-5-(fluoromethyl)-4,5-dihydro-1,2-oxazol-3-yl}-4-fluoropyrrolidin-3-yl]methanesulfonamide], the “OX2R agonist activity (3 μM, %)” value is on record as 97%.

These data come from patent publication US20240217957A1, “HETEROCYCLIC COMPOUND AND USE THEREOF” (TAKEDA PHARMACEUTICAL COMPANY LIMITED, priority 2022, published 2024).
